Laboratory results: US12590106B2, “Spiromacrocyclic orexin 2 receptor agonists” (H. Lundbeck A/S, priority 2023, dated 2026)

Target: T1, human Ox2R (Homo sapiens, UniProt O43614)
T1 construct: The gene encoding hOx2R was subcloned into the expression plasmid pcDNA5/FRT/TO; expressed in transfected cells; host or cells: CHO Flp-In cells (pcDNA5/FRT/TO with pOG44 Flp recombinase vector, hygromycin B selection)
T1 sequence (O43614 1-444): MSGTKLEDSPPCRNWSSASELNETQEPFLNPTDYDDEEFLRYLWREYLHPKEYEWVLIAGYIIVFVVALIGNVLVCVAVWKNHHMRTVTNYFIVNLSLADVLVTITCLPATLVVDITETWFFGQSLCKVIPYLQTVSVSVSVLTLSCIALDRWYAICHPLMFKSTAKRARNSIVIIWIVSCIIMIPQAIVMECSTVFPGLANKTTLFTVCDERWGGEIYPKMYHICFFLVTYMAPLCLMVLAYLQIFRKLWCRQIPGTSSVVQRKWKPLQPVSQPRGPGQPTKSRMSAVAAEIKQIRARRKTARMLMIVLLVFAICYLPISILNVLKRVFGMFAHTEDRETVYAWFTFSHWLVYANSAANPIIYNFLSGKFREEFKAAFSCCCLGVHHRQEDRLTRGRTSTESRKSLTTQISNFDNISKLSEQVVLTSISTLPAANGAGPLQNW
Experiment: Measurement of OX2R agonist activity (cell-based calcium release assay)
Conditions: hOx2R-CHO Flp-In cells, n≥2 tests; for EC50: intracellular calcium, read-out: EC50; for Emax (%) / Emax: normalized to assay buffer (0%) and 10 μM Danavorexton (100%); for Emax: read-out: Emax (%)
Summary of the method: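 CHO Flp-In cells stably expressing human Ox2R, dye-loaded 1 h at 37 °C in HBSS/20 mM HEPES pH 7.4 with 2.5 mM probenecid and 10 mM CaCl2, then stimulated with compound.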

| EC50 | Emax | Compound | Emax (%) |
| --- | --- | --- | --- |
| 9.7 nM | 98% | CS(=O)(=O)N[C@H]1CC[C@@]2(CO[C@H]3CC[C@H](CC3)c3nccc(n3)OCc3coc2n3)C1 [Example 1, N-[(1s,1′S,13S,16s)-spiro[7,11,15-trioxa-3,21,22-triazatetracyclo[14.2.2.12,6.19,12]docosa-2,4,6(22),9,12(21)-pentaene-13,3′-cyclopentane]-1′-yl]methanesulfonamide] |  |
| 330 nM | 100% | CS(=O)(=O)N[C@H]1CC[C@@]2(Cc3cccc(c3)-c3cccc(n3)OCCc3coc2n3)C1 [Example 4, N-[(1′S,8R)-spiro[10,15-dioxa-20,21-diazatetracyclo[14.3.1.12,6.19,12]docosa-1(19),2(22),3,5,9(21),11,16(20),17-octaene-8,3′-cyclopentane]-1′-yl]methanesulfonamide] |  |
| 0.87 nM | 99% | CS(=O)(=O)N[C@H]1C[C@@]2(Cc3ccc(F)c(c3)-c3cccc(F)c3OCc3coc2n3)C1 [Example 98, trans-N-(6,19-difluorospiro[8,12-dioxa-21-azatetracyclo[14.3.1.110,13.02,7]henicosa-1(20),2,4,6,10,13(21),16,18-octaene-14,3′-cyclobutane]-1′-yl)methanesulfonamide] |  |
| 1700 nM | 94% | CS(=O)(=O)N[C@H]1CC[C@@]2(COCCc3cccc(c3)OCc3coc2n3)C1 [Example 40, N-[(1′S,8S)-spiro[2,6,10-trioxa-18-azatricyclo[11.3.1.14,7]octadeca-1(17),4,7(18),13,15-pentaene-8,3′-cyclopentane]-1′-yl]methanesulfonamide] |  |
| 81 nM | 94% | CS(=O)(=O)N[C@H]1CC[C@@]2(CO[C@H]3CC[C@H](CC3)c3ncccc3OCc3coc2n3)C1 [Example 66, N-[(1s,1′S,14R,17s)-spiro[8,12,16-trioxa-3,22-diazatetracyclo[15.2.2.110,13.02,7]docosa-2,4,6,10,13(22)-pentaene-14,3′-cyclopentane]-1′-yl]methanesulfonamide] |  |
| 0.45 nM | 98% | CS(=O)(=O)N[C@H]1CC[C@]2(CC1)Cc1ccc(F)c(c1)-c1cccc(F)c1OCc1ccnc2n1 [Example 108, trans-N-(6,20-difluorospiro[8-oxa-13,22-diazatetracyclo[15.3.1.110,14.02,7]docosa-1(21),2,4,6,10,12,14(22),17,19-nonaene-15,4′-cyclohexane]-1′-yl)methanesulfonamide] |  |
| 0.2 nM | 96% | CS(=O)(=O)N[C@H]1CC[C@@]2(Cc3ccc(F)c(c3)-c3cc(F)cc(F)c3OCc3coc2n3)C1 [Example 69, N-[(1′S,14R)-4,6,19-trifluorospiro[8,12-dioxa-21-azatetracyclo[14.3.1.110,13.02,7]henicosa-1(19),2,4,6,10,13(21),16(20),17-octaene-14,3′-cyclopentane]-1′-yl]methanesulfonamide] |  |
| 2.6 nM | 100% | CS(=O)(=O)N[C@@H]1CC[C@]2(Cc3cc(c(F)cc3F)-c3cccc(F)c3OCc3coc2n3)C1 [Example 107, N-[(1′R,14S)-6,17,19-trifluorospiro[8,12-dioxa-21-azatetracyclo[14.3.1.110,13.02,7]henicosa-1(19),2,4,6,10,13(21),16(20),17-octaene-14,3′-cyclopentane]-1′-yl]methanesulfonamide] |  |
| 0.37 nM | 97% | O=S(=O)(N[C@H]1CC[C@@]2(Cc3ccc(F)c(c3)-c3cccc(F)c3OCc3coc2n3)C1)C(F)F [Example 115, N-[(1′S,14R)-6,19-difluorospiro[8,12-dioxa-21-azatetracyclo[14.3.1.110,13.02,7]henicosa-1(20),2,4,6,10,13(21),16,18-octaene-14,3′-cyclopentane]-1′-yl]-1,1-difluoro-methanesulfonamide] |  |
| 0.26 nM | 99% | CS(=O)(=O)N[C@H]1CC[C@@]2(Cc3ccc(Cl)c(c3)-c3cc(F)cc(F)c3OCc3coc2n3)C1 [Example 76, N-[(1′S,14R)-19-chloro-4,6-difluoro-spiro[8,12-dioxa-21-azatetracyclo[14.3.1.110,13.02,7]henicosa-1(19),2,4,6,10,13(21),16(20),17-octaene-14,3′-cyclopentane]-1′-yl]methanesulfonamide] |  |
| 0.54 nM | 99% | CS(=O)(=O)N[C@H]1CC[C@@]2(Cc3cccc(c3)-c3cccc(F)c3OCc3coc2n3)C1 [Example 44, N-[(1′S,14R)-6-fluorospiro[8,12-dioxa-21-azatetracyclo[14.3.1.110,13.02,7]henicosa-1(19),2,4,6,10,13(21),16(20),17-octaene-14,3′-cyclopentane]-1′-yl]methanesulfonamide] |  |
| 49 nM | 97% | CS(=O)(=O)N[C@H]1CC[C@@]2(Cc3ccc(F)c(c3)-c3cccc(F)c3OCC3=NN=C2O3)C1 [Example 71, N-[(1′S,14R)-6,19-difluorospiro[8,21-dioxa-11,12-diazatetracyclo[14.3.1.110,13.02,7]henicosa-1(19),2(7),3,5,10,12,16(20),17-octaene-14,3′-cyclopentane]-1′-yl]methanesulfonamide] |  |
| 6.1 nM | 97% | CS(=O)(=O)N[C@H]1CC[C@@]2(Cc3cc(ncc3F)-c3cccc(F)c3OCc3coc2n3)C1 [Example 105, N-[(1′S,14R)-6,17-difluorospiro[8,12-dioxa-19,21-diazatetracyclo[14.3.1.110,13.02,7]henicosa-1(20),2,4,6,10,13(21),16,18-octaene-14,3′-cyclopentane]-1′-yl]methanesulfonamide] |  |

| Compound | EC50 | Emax | Emax (%) |
| --- | --- | --- | --- |
| N-[(1′S,4′S,15R)-6,20-difluoro-4′-methyl-spiro[8-oxa-13,22-diazatetracyclo[15.3.1.110,14.02,7]docosa-1(20),2,4,6,10,12,14(22),17(21),18-nonaene-15,3′-cyclopentane]-1′-yl]methanesulfonamide or N-[(1′R,4′R,15S)-6,20-difluoro-4′-methyl-spiro[8-oxa-13,22-diazatetracyclo[15.3.1.110,14.02,7]docosa-1(20),2,4,6,10,12,14(22),17(21),18-nonaene-15,3′-cyclopentane]-1′-yl]methanesulfonamide [Example 93] | 3.1 nM |  | 94% |
| C[C@@H]1C[C@@H](NS(C)(=O)=O)C[C@@]12Cc1ccc(F)c(c1)-c1ccccc1OCc1coc2n1 [Example 62, N-[(1′R,4′R,14S)-19-fluoro-4′-methyl-spiro[8,12-dioxa-21-azatetracyclo[14.3.1.110,13.02,7]henicosa-1(19),2,4,6,10,13(21),16(20),17-octaene-14,3′-cyclopentane]-1′-yl]methanesulfonamide or N-[(1′S,4′S,14R)-19-fluoro-4′-methyl-spiro[8,12-dioxa-21-azatetracyclo[14.3.1.110,13.02,7]henicosa-1(19),2,4,6,10,13(21),16(20),17-octaene-14,3′-cyclopentane]-1′-yl]methanesulfonamide] | 160 nM |  | 100% |
